Laboratory results from patent US11019821B2, “Fused bicyclic heterocycle derivatives as pesticides” (Bayer Aktiengesellschaft, priority 2018, dated 2021).

Assays:
[1] = log P by HPLC on reversed-phase column, acidic range; format: physicochemical; conditions: reversed-phase HPLC column (C 18); pH 2.7, 0.1% aqueous formic acid and acetonitrile, C 18 column, 55° C.; read-out: log P (HCOOH)
Experimental: The log P values are measured according to EEC Directive 79/831 Annex V.A8 by HPLC (high-performance lilog Puid chromatography) on a reversed-phase column (C 18). Temperature: 55° C.
The LC-MS determination in the acidic range is effected at pH 2.7 with 0.1% alog Pueous formic acid and acetonitrile (containing 0.1% formic acid) as eluents; linear gradient from 10% acetonitrile to 95% acetonitrile. Called log P (HCOOH) in the table.
Calibration is effected using unbranched alkan-2-ones (having 3 to 16 carbon atoms) with known log P values (log P values determined on the basis of the retention times by linear interpolation between two successive alkanones).

Spodoptera frugiperda = Spodoptera frugiperda spray test; format: in vivo; conditions: application rate 100 g/ha, after 7 days, maize leaf discs
Experimental: (§1) To produce a suitable active ingredient formulation, 1 part by weight of active ingredient is dissolved with the specified parts by weight of solvent and made up to the desired concentration with water containing an emulsifier concentration of 1000 ppm. To produce further test concentrations, the formulation is diluted with emulsifier-containing water.
Leaf discs of maize (Zea mays) are sprayed with an active ingredient formulation of the desired concentration and, after drying, populated with caterpillars of the armyworm (Spodoptera frugiperda).
After 7 days, the efficacy in % is determined. 100% means that all the caterpillars have been killed; 0% means that no caterpillar has been killed.

Myzus persicae [2] = assay: Myzus persicae oral test; format: in vivo; conditions: 120 h, application rate 4 ppm, after 5 days, read-out: efficacy (aphids killed)
Experimental: To produce a suitable active ingredient formulation, 1 part by weight of active ingredient is dissolved with the stated parts by weight of solvent and made up to the desired concentration with water.
50 μl of the active ingredient preparation are transferred into microtitre plates and made up to a final volume of 200 μl with 150 μl of IPL41 insect medium (33%+15% sugar). Subselog Puently, the plates are sealed with parafilm, which a mixed population of green peach aphids (Myzus persicae) within a second microtitre plate is able to puncture and imbibe the solution.
(§2) After 5 days, the efficacy in % is determined. 100% means that all the aphids have been killed; 0% means that no aphids have been killed.

Phaedon cochleariae = Phaedon cochleariae spray test; format: in vivo; conditions: application rate 100 g/ha, after 7 days, Chinese cabbage leaf discs
Experimental: as §1
Discs of Chinese cabbage leaves (Brassica pekinensis) are sprayed with an active ingredient formulation of the desired concentration and, after drying, populated with larvae of the mustard beetle (Phaedon cochleariae).
After 7 days, the efficacy in % is determined. 100% means that all the beetle larvae have been killed; 0% means that no beetle larvae have been killed.

Myzus persicae [3] = assay: Myzus persicae spray test; format: in vivo; conditions: foliar, 120 h, application rate 100 g/ha, after 5 days, Chinese cabbage leaf discs, read-out: efficacy (aphids killed)
Experimental: as §1
Discs of Chinese cabbage leaves (Brassica pekinensis) infested by all stages of the green peach aphid (Myzus persicae) are sprayed with an active ingredient formulation of the desired concentration.
as §2

Tetranychus urticae = Tetranychus urticae spray test, OP-resistant; format: in vivo; conditions: application rate 100 g/ha, after 6 days, bean leaf discs
Experimental: as §1
Discs of bean leaves (Phaseolus vulgaris) infested with all stages of the greenhouse red spider mite (Tetranychus urticae) are sprayed with an active ingredient formulation of the desired concentration.
After 6 days, the efficacy in % is determined. 100% means that all the spider mites have been killed; 0% means that no spider mites have been killed.

Ctenocephalides felis = Ctenocephalides felis oral test; format: in vivo; conditions: application rate 100 ppm in citrated cattle blood, after 2 days, adult cat fleas
Experimental: (§3) Solvent: dimethyl sulfoxide
To produce a suitable active ingredient formulation, 10 mg of active ingredient are mixed with 0.5 ml of dimethyl sulfoxide. Dilution with citrated cattle blood gives the desired concentration.
About 20 unfed adult cat fleas (Ctenocephalides felis) are placed into a chamber which is closed at the top and bottom with gauze. A metal cylinder whose bottom end is closed with parafilm is placed onto the chamber. The cylinder contains the blood/active ingredient formulation, which can be imbibed by the fleas through the parafilm membrane.
After 2 days, the kill in % is determined. 100% means that all of the fleas have been killed; 0% means that none of the fleas have been killed.

Boophilus microplus = Boophilus microplus injection test; format: in vivo; conditions: application rate 20 μg/animal, assessed after 7 days, engorged adult female cattle ticks
Experimental: as §3
To produce a suitable active ingredient formulation, 10 mg of active ingredient are mixed with 0.5 ml of solvent and the concentrate is diluted to the desired concentration with solvent.
1 μl of the active ingredient solution is injected into the abdomen of 5 engorged adult female cattle ticks (Boophilus microplus). The animals are transferred into dishes and kept in a climate-controlled room.
Efficacy is assessed after 7 days by laying of fertile eggs. Eggs which are not visibly fertile are stored in a climate-controlled cabinet until the larvae hatch after about 42 days. An efficacy of 100% means that none of the ticks has laid any fertile eggs; 0% means that all the eggs are fertile.

Diabrotica balteata = Diabrotica balteata spray test; format: in vivo; conditions: application rate 160 μg/cavity, after 7 days, beetle larvae on germinated wheat grains
Experimental: To produce an appropriate active ingredient formulation, 1 part by weight of active ingredient is dissolved with the given parts by weight of solvent and made up with water containing an emulsifier concentration of 1000 ppm until the desired concentration is attained. Further test concentrations are produced by diluting with emulsifier-containing water.
Pre-swollen wheat grains (Triticum aestivum) are incubated in a multiwell plate filled with agar and a little water for one day (5 seed grains per cavity). The germinated wheat grains are sprayed with an active ingredient formulation of the desired concentration. Subselog Puently, each cavity is infected with 10-20 Diabrotica balteata beetle larvae.
After 7 days, efficacy in % is determined. 100% means that all wheat plants have grown as in the untreated, uninfected control; 0% means that no wheat plant has grown.

Row | Structure (SMILES) | efficacy (caterpillars killed) (Spodoptera frugiperda) | pest or weed control at 4 ppm (Myzus persicae [2]) | pest or weed control at 100 g/ha (Myzus persicae [3]) | also measured
1 | Cn1c(-c2nn3c(c2Br)CC(C(F)(F)F)CC3)nc2cc(C(F)(F)F)cnc21 (centres unmarked) [2-[3-Bromo-5-(trifluoromethyl)-4,5,6,7-tetrahydropyrazolo[1,5-a]pyridin-2-yl]-3-methyl-6-(trifluoromethyl)imidazo[4,5-b]pyridine] | – | – | – | chromatographic logP [1]: 3.99
2 | O=C(O)c1nn2c(c1Br)CC(C(F)(F)F)CC2 (centres unmarked) [3-Bromo-5-(trifluoromethyl)-4,5,6,7-tetrahydropyrazolo[1,5-a]pyridine-2-carboxylic acid] | – | – | – | chromatographic logP [1]: 1.75
3 | O=C(O)c1cc2n(n1)CCC(C(F)(F)F)C2 (centres unmarked) [5-(Trifluoromethyl)-4,5,6,7-tetrahydropyrazolo[1,5-a]pyridine-2-carboxylic add] | – | – | – | chromatographic logP [1]: 1.28
4 | O=C(O)c1cc2cc(C(F)(F)F)ccn2n1 [5-(Trifluoromethyl)pyrazolo[1,5-a]pyridine-2-carboxylic add] | – | – | – | chromatographic logP [1]: 1.58
5 | COC(=O)c1nn2ccc(C(F)(F)F)cc2c1C(=O)OC [Dimethyl 5-(trifluoromethyl)pyrazolo[1,5-a]pyridine-2,3-dicarboxylate] | – | – | – | chromatographic logP [1]: 2.57
6 | CCS(=O)(=O)c1c(-c2nc3cc(C(F)(F)F)cnc3n2C)nn2c1CC(C(F)(F)F)CC2 (centres unmarked) [Example I-01, 2-[3-Ethylsulfonyl-5-(trifluoromethyl)-4,5,6,7-tetrahydropyrazolo[1,5-a]pyridin-2-yl]-3-methyl-6-(trifluoromethyl)imidazo[4,5-b]pyridine] | 100% | 100% | – | efficacy (beetle larvae killed) (Phaedon cochleariae): 100%; chromatographic logP [1]: 3.21
7 | CCS(=O)(=O)c1c(-c2nc3cc(C(F)(F)F)cnc3n2C)nn2c1CCCC2 [Example I-03] | – | 100% | 90% | efficacy (beetle larvae killed) (Phaedon cochleariae): 100%
8 | CCS(=O)(=O)c1c(-c2nc3cc(C(F)(F)F)ncc3n2C)nn2c1CC(C(F)(F)F)CC2 (centres unmarked) [Example I-04] | – | 100% | 100% | efficacy (spider mites killed) (Tetranychus urticae): 100%
9 | CCS(=O)(=O)c1c(-c2nc3cc(C(F)(F)F)ncc3n2C)nn2c1CCC(C)C2 (centres unmarked) [Example I-06] | – | – | 90% | –
10 | CCS(=O)(=O)c1c(-c2nc3cc(C(F)(F)F)cnc3n2C)nn2c1CCC(C)C2 (centres unmarked) [Example I-07] | – | 100% | – | –
11 | CCS(=O)(=O)c1c(-c2nc3cc(C(F)(F)C(F)(F)F)cnc3n2C)nn2c1CCC(C)C2 (centres unmarked) [Example I-08] | 100% | 100% | – | –
12 | CCS(=O)(=O)c1c(-c2nc3cc(OC(F)(F)F)cnc3n2C)nn2c1CCC(C)C2 (centres unmarked) [Example I-09] | – | 90% | 90% | –
13 | CCS(=O)(=O)c1c(-c2nc3cc(C(F)(F)F)cnc3n2C)nn2c1CC(C)CC2 (centres unmarked) [Example I-10] | – | 100% | 90% | efficacy (spider mites killed) (Tetranychus urticae): 90%
14 | CCS(=O)(=O)c1c(-c2nc3cc(SC(F)(F)F)cnc3n2C)nn2c1CCC(C)C2 (centres unmarked) [Example I-11] | 83% | 100% | 90% | efficacy (kill in %) (Ctenocephalides felis): 100%
15 | CCS(=O)(=O)c1c(-c2nc3cc(C(F)(F)C(F)(F)F)ncc3n2C)nn2c1CCCC2 [Example I-12] | – | 100% | 90% | efficacy (beetle larvae killed) (Phaedon cochleariae): 100%
16 | CCS(=O)(=O)c1c(-c2nc3cc(C(F)(F)C(F)(F)F)ncc3n2C)nn2c1CC(C)CC2 (centres unmarked) [Example I-13] | 100% | 100% | 90% | efficacy (spider mites killed) (Tetranychus urticae): 100%; efficacy (no laying of fertile eggs) (Boophilus microplus): 100%; efficacy (kill in %) (Ctenocephalides felis): 100%
17 | CCS(=O)(=O)c1c(-c2nc3cc([S+]([O-])C(F)(F)F)cnc3n2C)nn2c1CCC(C)C2 (centres unmarked) [Example I-14] | – | 100% | 100% | –
18 | CCS(=O)(=O)c1c(-c2nc3cc(S(=O)(=O)C(F)(F)F)cnc3n2C)nn2c1CCC(C)C2 (centres unmarked) [Example I-15] | 100% | 90% | 90% | efficacy (kill in %) (Ctenocephalides felis): 90%
19 | CCS(=O)(=O)c1c(-c2nc3cc(S(=O)(=O)C(F)(F)F)ccc3o2)nn2c1CCC(C)C2 (centres unmarked) [Example I-16] | – | 90% | – | –
20 | CCS(=O)(=O)c1c(-c2nc3cc(C(F)(F)C(F)(F)F)ncc3n2C)nn2c1CCC(C(F)(F)F)C2 (centres unmarked) [Example I-17] | 100% | 100% | – | efficacy (wheat plants grown as in untreated, uninfected control) (Diabrotica balteata): 100%
21 | CCS(=O)(=O)c1c(-c2nc3c(n2C)CN(C)C(C(F)(F)F)=C3)nn2c1CCC(C(F)(F)F)C2 (centres unmarked) [Example I-18] | – | 100% | 90% | efficacy (wheat plants grown as in untreated, uninfected control) (Diabrotica balteata): 100%
22 | CCS(=O)(=O)c1c(-c2nc3cc(C(F)(F)C(F)(F)F)cnc3n2C)nn2c1CCC(C(F)(F)F)C2 (centres unmarked) [Example I-19] | 100% | 100% | – | efficacy (wheat plants grown as in untreated, uninfected control) (Diabrotica balteata): 100%
